# Earlier results, collected in patent US10441569B2, “Self-emulsifying formulations of DIM-related indoles” (BioResponse, L.L.C., priority 2015, dated 2019).
# Conditions: cited from earlier work; for log P: no own measurement; for Log P of 2nd API drug: table of exemplary 2nd API drugs
Compound,log P,Log P of 2nd API drug
"CC(O)(CS(=O)(=O)c1ccc(F)cc1)C(=O)Nc1ccc(C#N)c(C(F)(F)F)c1 (stereo not shown) [Biculatamide, Bicalutamide]",4.94,
"COc1cc2ncnc(Nc3ccc(F)c(Cl)c3)c2cc1OCCCN1CCOCC1 [Gefitinib, N-(3-chloro-4-fluoro-phenyl)-7-methoxy-6-(3-morpholin-4-ylpropoxy)quinazolin-4-amine]",3.72,3.72
"CNC(=O)c1cccc2cc(Oc3ccnc4cc(OCC5(N)CC5)c(OC)cc34)ccc12 [Lucitanib, 6-[7-[(1-aminocyclopropyl)methoxy]-6-methoxyquinolin-4-yl]oxy-N-methylnaphthalene-1-carboxamide]",3.81,3.81
"CCCCCCCCCCCCCCCC(=O)OC/C=C(C)/C=C/C=C(C)/C=C/C1=C(C)CCCC1(C)C [Retinyl palmitate, Retinyl Palmitate]",5.68,
COc1cc(C)c(/C=C/C(C)=C/C=C/C(C)=C/C(=O)O)c(C)c1C [acitretin],5.73,
"CC1=C(/C=C/C(C)=C/C=C/C(C)=C\C(=O)O)C(C)(C)CCC1 [isotretinoin, 13-cis retinoic acid]",6.83,
CC(C)=CCC/C(C)=C/CC/C(C)=C/CC/C(C)=C/CC1=C(C)C(=O)c2ccccc2C1=O [menaquinone-4],10-12,
Vitamin D,7.5,
